Data: the NIST ThermoML archive (doi:10.1016/j.jct.2015.09.028)

Legend:
[1] = molar heat capacity at constant pressure; conditions: Liquid, Flow calorimetry
[2] = 93 kPa, Liquid; for viscosity: Concentric cylinders viscometry; for mass density: Vibrating tube method

c1ccc(Oc2ccccc2)cc1 [diphenyl ether]
molar heat capacity at constant pressure [J/K/mol], [1]
Conditions	100 kPa	5000 kPa	10000 kPa	15000 kPa	20000 kPa	25000 kPa
313.15 K	274.37	273.52	273.18	272.5	272.16	–
333.15 K	286.97	285.95	284.93	284.59	283.39	282.71
353.15 K	299.05	298.03	296.84	296.33	295.48	294.63

[2]
Conditions	mass density [kg/m3]	viscosity [mPa·s]
303.15 K	1065.5	3.33
308.15 K	1061.2	2.96
313.15 K	1056.9	2.65
323.15 K	1048.2	2.17
333.15 K	1039.6	1.82
343.15 K	1030.9	1.54
353.15 K	1022.3	1.33
363.15 K	1013.7	1.16
373.15 K	1005.2	1.03
